Test results from patent US20100004193A1, “COMBINATION THERAPY” (FONDAZIONE PER LA RICERCA BIOMEDICA AVANZATA ONLUS - …, priority 2008, published 2010).

Tests used:
[1] = concentrations comparable to the concentrations used by the applicant; cited from earlier work
[2] = system: T-24, HT-1197, HT-1376, MCF-7, A-549 and AsPC-1 cancer cell lines; assay: EC50 for Gem-induced cell death or growth inhibition with G418 at fixed concentrations; type: cell-based; conditions: G418 at fixed concentrations with no or little effect on their own; Gem 2 to 5 days
Method: Cell culture, cell death assays and growth assays—The T-24 and HT-1376 cell lines were purchased from the German Collection of Microorganisms and Cell Cultures and were cultivated in DMEM, high glucose, containing 10% Fetal Bovine Serum (FBS) or Minimum Essential Medium with 10% FBS and non-essential amino acids, respectively. HT-1197 was a gift from Bioxell (Milano) and was cultured like HT-1376. […] HT-1376 and its clones were incubated for 4 days and HT-1197 for 5 days with Gem including one medium change after 2 days. The percentage of dead cells that took up propidium iodide was determined using flow cytometry. […] Staining with Annexin-V-FITC was performed according to the manufacturer's description (Roche). […] Absorbance was read at 570 nm with reference at 650 nm.
G418 enhances Gem-induced cell death or growth inhibition in various cancer cell lines—Since enhancing Gem action would benefit therapy, we tested whether supplementing Gem with G418 could augment the effect of Gem also in other cancer cell lines. To this end, we added G418 at fixed concentrations and determined the EC50 value for Gem-induced cell death. […]
FIG. 6. […] Cell death was measured by propidium iodide dye exclusion except for MCF-7 and AsPC-1 where cell number was measured by MTT-assay. […]

[3] = system: T-24, HT-1376 and HT-1197 cell lines and clones; assay: Metabolic labelling of protein synthesis with 35S-methionine/cysteine; type: cell-based
Method: Cells were labelled for 1.5 hours in growth medium without methionine and cysteine supplemented with 30 μCi/ml [^35S]-methionine/cysteine. Subsequently, the proteins were precipitated with TCA as described previously (Zhang et al., 2004). The incorporated radioactivity was expressed as counts/μg protein.
FIG. 3. Protein synthesis in the presence of Gem is higher in the resistant clones. […] Medium was removed and replaced for 1.5 h by medium containing 30 μCi/ml ^35S-methionine/cysteine (pulse). […] The reduction in radioactively labelled proteins due to protein degradation during the chase was significant as indicated. (B) The three parental cell lines and HT-1197 and T-24 stably expressing Bcl-2 were incubated with Gem as in (A) in the presence of 40 μM (T-24, HT-1376) or 80 μM z-VAD-fmk (HT-1197) or vehicle (DMSO). Subsequently, the cells were labelled as before. (C) Two sensitive and two resistant clones of each clone set were incubated and labelled as in (A). […] Results are from two independent experiments in duplicate. Error bars depict S.E.M. **P<0.01.
FIG. 5. Protein synthesis inhibitors diminish Gem resistance. (A) Two sensitive and two resistant clones of each clone set were incubated with Gem (T-24: 30 nM, 2 days; HT-1376: 80 nM, 4 days; HT-1197: 120 nM, 5 days). […] Cell death was measured by propidium iodide dye exclusion using flow cytometry. (B) The parental cell lines were incubated with Gem (T-24: 30 nM Gem, 1 day; HT-1376: 80 nM, 3 days; HT-1197: 120 nM, 3 days) in the absence or presence of the indicated protein synthesis inhibitors (250 μg/ml G418 for T-24, 80 μg/ml for HT-1376, 70 μg/ml for HT-1197; 500 ng/ml CHX for all cell lines; 10 nM rapamycin for all cell lines). Subsequently, cells were labeled with 30 μCi/ml ^35S-methionine/cysteine. (C) The parental cell lines were incubated with Gem like for the selection of the Gem-resistant clones and additionally G418 was added at 250 μg/ml (T-24), 80 μg/ml G418 (HT-1376) or 70 μg/ml G418 (HT-1197). Afterward, the remaining cells on the culture plate were stained with crystal violet. A representative assay is shown. All other data are from two independent experiments in duplicate. Error bars represent S.E.M. **P-<0.01, ***p<0.001.

[4] = system: clones of T-24, HT-1376 and HT-1197 bladder cancer cell lines; assay: Cell death by propidium iodide dye exclusion (flow cytometry) in Gem-sensitive and Gem-resistant clones; type: cell-based; conditions: 2 sensitive and 2 resistant clones per clone set; Gem 30 nM 2 days (T-24), 80 nM 4 days (HT-1376), 120 nM 5 days (HT-1197); G418 250 or 70 μg/ml, cycloheximide 500 ng/ml, rapamycin 10 nM
Method: (§1) Cell culture, cell death assays and growth assays—The T-24 and HT-1376 cell lines were purchased from the German Collection of Microorganisms and Cell Cultures and were cultivated in DMEM, high glucose, containing 10% Fetal Bovine Serum (FBS) or Minimum Essential Medium with 10% FBS and non-essential amino acids, respectively. HT-1197 was a gift from Bioxell (Milano) and was cultured like HT-1376. […] HT-1376 and its clones were incubated for 4 days and HT-1197 for 5 days with Gem including one medium change after 2 days. The percentage of dead cells that took up propidium iodide was determined using flow cytometry. […] Staining with Annexin-V-FITC was performed according to the manufacturer's description (Roche). To assess the cell number by staining with 3-(4,5-Dimethylthiazol-2-yl)-2,5-diphenyltetrazolium bromide (MTT), MTT was added at 500 μg/ml. After 2 hours, precipitate was solubilized by addition of 0.04N HCl/Isopropanol. Absorbance was read at 570 nm with reference at 650 nm.
Generation of Gemcitabine-resistant clones and stable cell lines—The T-24 cell line was incubated with 120 nM Gem for 3 days, HT-1376 with 160 nM Gem and HT-1197 with 1.6 μM for 7 days. […] Subsequently, the medium was changed for normal growth medium without Gem and the cells were grown for additional 1 to 3 weeks. […]
FIG. 5. […] Cell death was measured by propidium iodide dye exclusion using flow cytometry. […]

T-24 and HT-1197 = assay: Form of Gem-induced cell death, Bcl-2 overexpression; type: cell-based; conditions: inhibited by Bcl-2 overexpression
Method: as §1
In HT-1376, apoptosis could not be inhibited by Bcl-2. However, this might be attributed to the relatively low overexpression of Bcl-2 (Supplementary FIG. 1).

[5] = system: eIF2α, eukaryotic initiation factor 4E binding protein 1, ribosomal protein S6; assay: Phosphorylation state of translation regulators upon Gem treatment; type: cell-based
Method: Quantitative real-time PCR and immunoblotting—We used the same RNA that was isolated for the DNA microarrays and prepared cDNA using Applied Biosystem (ABI) Reverse Transcription Reagents with random hexamer primers. Real-time PCR was performed using the PCR Master Mix (ABI) and ready-made TaqMan expression assays on an ABI Prism 7000. […] For this clone set, we used another “house-keeping gene”, HPRT1, for normalizing the expression values. Expression levels were calculated according to the formula: 1000*2^([…]). Cell lysis for protein extraction was performed on the same day as metabolic labelling. Immunoblotting was done as described previously (Abraham et al., 2005).

CN[C@@H]1[C@@H](O)[C@@H](O[C@@H]2[C@@H](O)[C@H](O[C@H]3O[C@H]([C@@H](C)O)[C@@H](O)[C@H](O)[C@H]3N)[C@@H](N)C[C@H]2N)OC[C@]1(C)O [G418]
Effects of G418 treatment on mice [1]: without detectable effects on mice
Decrease of the EC50 value for Gem-induced cell death by addition of G418 [2]: up to 30 fold

z-VAD-fmk
Protein synthesis rates with Gem in the presence of the caspase inhibitor ([3]; 40 μM (T-24, HT-1376) or 80 μM (HT-1197) z-VAD-fmk): did not alter the protein synthesis rates with Gem

C[C@@H]1C[C@@H]([C@H](O)CC2CC(=O)NC(=O)C2)C(=O)[C@@H](C)C1 [cycloheximide]
Protein synthesis in the presence of Gem plus a protein synthesis inhibitor ([3]; parental cell lines, Gem 30 nM 1 day (T-24), 80 nM 3 days (HT-1376), 120 nM 3 days (HT-1197), G418 250/80/70 μg/ml, CHX 500 ng/ml, rapamycin 10 nM): increased protein synthesis compared to Gem alone
Gem-induced cell death on concomitant treatment with a protein synthesis inhibitor [4]: inhibited Gem-induced cell death

Nc1ccn([C@@H]2O[C@H](CO)[C@@H](O)C2(F)F)c(=O)n1 [Gem, 2′-2′-difluorodeoxycytidine]
Protein synthesis upon Gem treatment of the parental cell lines ([3]; T-24 30 nM 1 day, HT-1376 80 nM 3 days, HT-1197 120 nM 3 days): protein synthesis was reduced
Protein synthesis upon Gem treatment, resistant versus sensitive clones ([3]; two resistant and two sensitive clones of each clone set): decreased protein synthesis significantly less in the resistant clones compared to the sensitive clones
Form of cell death induced by Gem (T-24 and HT-1197): induced an apoptotic form of cell death
Phosphorylation state upon Gem treatment [5]: neither eIF2α nor eukaryotic initiation factor 4E binding protein 1 nor ribosomal protein S6 changed phosphorylation state
